According to US20260297042A1, “BIARYLAMIDE DERIVATIVES AND THEIR USE AS PKMYT1 INHIBITORS” (CANCER RESEARCH TECHNOLOGY LIMITED, priority 2023, published 2026):

Target: T1, Human PKMYT1 (Homo sapiens, UniProt Q99640)
T1 construct: Human PKMYT1 75-362 was cloned as a TEV cleavable 6xHis fusion; 6xHis (TEV cleavable) (cleaved yes); made in house; host or cells: bacterial cells
T1 sequence (Q99640 75-362): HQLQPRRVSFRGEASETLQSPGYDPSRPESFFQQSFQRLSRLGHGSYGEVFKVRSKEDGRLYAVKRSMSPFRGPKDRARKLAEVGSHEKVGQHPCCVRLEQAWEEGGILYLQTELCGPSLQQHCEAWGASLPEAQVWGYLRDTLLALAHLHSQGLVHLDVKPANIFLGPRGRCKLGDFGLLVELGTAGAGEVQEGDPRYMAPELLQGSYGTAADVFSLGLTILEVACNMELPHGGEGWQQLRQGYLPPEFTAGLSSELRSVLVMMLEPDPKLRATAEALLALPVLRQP
Experiment: PKMYT1 biochemical ADP-Glo enzymatic assay
Procedure: Human PKMYT1 75-362 was cloned as a TEV cleavable 6xHis fusion in bacterial cells. After purification on a Ni++HiTrap Chelating HP column, the His-tag was cleaved using TEV protease. Cleaved PKMYT1 was further purified on a Superdex 200 16/600 sizing column. The fractions containing PKMYT1 were pooled and concentrated using an ultrafiltration centrifugal protein concentrator. The purified protein was aliquoted, flash frozen in liquid nitrogen, and stored at −80° C.
PKMYT1 biochemical assay: Inhibition of PKMYT1 was assessed using the ADP-Glo™ Max Detection System from Promega. This assay detects the production of ADP from ATP by PKMYT1 via a two-step process ultimately involving the conversion of ADP to ATP with the latter converted to light in a coupled reaction with luciferase/luciferin. Inhibition of PKMYT1 by small molecule inhibitors results in a retardation of luminescence above background. The intrinsic ATPase activity of PKMYT1 was assessed according to the following protocol. Compounds were dosed into Corning white low volume 384 well assay plates using an Echo acoustic dispenser to generate 10-point curves spanning a 3-fold dilution series. DMSO (no inhibitor) control wells were prepared to benchmark the maximum and minimum signals in the presence and absence of PKMYT1, respectively. The PKMYT1 kinase domain was purified in-house, as described above, and added to the wells at a final concentration of 15 nM in a buffer of 50 mM HEPES (pH 7.5), 10 mM MgCl2, 1 mM EGTA, 0.01% Brij-35, 1% DMSO. 500 µM ATP was added to start the reaction with the final assay volume being 4 μl. The plate was then incubated for 60 minutes at 26° C. before the addition of 4 μl of ADP-Glo Reagent to stop the reaction and deplete the unconsumed ATP. Following a further 60 minute incubation the assay signal was developed by the addition of 8 μl ADP-Glo Max Detection Reagent. After 60 minutes the luminescence signal was read on a PHERAStar FS microplate reader (BMG Labtech).
Data analysis: Data was captured and analysed within the Dotmatics Studies software module where dose response curves were generated and IC50 values determined. Acceptance and verification of data followed strict in-house business rules which are summarised as follows. […] Technical and biological replicates of each compound are routinely tested and replicate IC50 values must fall within 3-fold of each other with dose response curves showing ‘goodness of fit’ r2 values >0.9. Failure to meet any of these defined criteria result in rejection of data.

[1] = ADP-Glo, 15 nM PKMYT1 kinase domain, 500 µM ATP, 60 minutes at 26° C., banded
[2] = PKMYT1 kinase domain 15 nM, ADP-Glo, banded values
[3] = PKMYT1 biochemical ADP-Glo enzymatic assay, Comparison Data 1
[4] = PKMYT1 biochemical ADP-Glo enzymatic assay, Comparison Data 2

SMILES | IC50 [1] [µM] | further results
Cc1ccc(O)c(C)c1NC(=O)c1cnc(NCC2CCN(CC(=O)N(C)C)CC2)s1 [BAA-216, 2-[[1-[2-(dimethylamino)-2-oxo-ethyl]-4-piperidyl]methylamino]-N-(3-hydroxy-2,6-dimethyl-phenyl)thiazole-5-carboxamide] | 1 to 11 | –
Cc1ccc(O)c(C)c1NC(=O)c1cnc(Nc2ccc(-c3ccc(F)cc3)cn2)s1 [BAA-291, 2-((5-(4-fluorophenyl)pyridin-2-yl)amino)-N-(3-hydroxy-2,6-dimethylphenyl)thiazole-5-carboxamide] | 1 to 11 | –
Cc1cc(-c2ccc(F)cc2)cnc1Nc1ncc(C(=O)Nc2c(C)ccc(O)c2C)s1 [BAA-292, 2-((5-(4-fluorophenyl)-3-methylpyridin-2-yl)amino)-N-(3-hydroxy-2,6-dimethylphenyl)thiazole-5-carboxamide] | 1 to 11 | –
CCN(c1ccc(F)cc1)c1ccc(Nc2ncc(C(=O)Nc3c(C)ccc(O)c3C)s2)nc1 [BAA-311, 2-((5-(ethyl(4-fluorophenyl)amino)pyridin-2-yl)amino)-N-(3-hydroxy-2,6-dimethylphenyl)thiazole-5-carboxamide] | 1 to 11 | –
CCN(c1ccc(F)cc1)c1cccc(Nc2ncc(C(=O)Nc3c(C)ccc(O)c3C)s2)n1 [BAA-312, 2-((6-(ethyl(4-fluorophenyl)amino)pyridin-2-yl)amino)-N-(3-hydroxy-2,6-dimethylphenyl)thiazole-5-carboxamide] | 1 to 11 | –
Cc1ccc(N2CCN(C3CC3)CC2)nc1Nc1ncc(C(=O)Nc2c(C)ccc(O)c2C)s1 [BAA-433, 2-((6-(4-cyclopropylpiperazin-1-yl)-3-methylpyridin-2-yl)amino)-N-(3-hydroxy-2,6-dimethylphenyl)thiazole-5-carboxamide] | – | IC50 [2]: < 0.05 µM
Cc1cc(C)c(NC(=O)c2cnc(Nc3ccn(C)n3)s2)c(C)c1O [BAA-517, N-(3-Hydroxy-2,4,6-trimethylphenyl)-2-((1-methyl-1H-pyrazol-3-yl)amino)thiazole-5-carboxamide] | – | IC50 [2]: 1 to 11 µM
Cc1ccc(O)c(C)c1NC(=O)c1cnc(Nc2ccccc2C(C)C)s1 [BAA-525, N-(3-hydroxy-2,6-dimethylphenyl)-2-((2-isopropylphenyl)amino)thiazole-5-carboxamide] | – | IC50 [2]: 1 to 11 µM
Cc1cc(Cl)c(O)c(C)c1NC(=O)c1cnc(Nc2ccn(C)n2)s1 [BAA-547, N-(4-chloro-3-hydroxy-2,6-dimethylphenyl)-2-((1-methyl-1H-pyrazol-3-yl)amino)thiazole-5-carboxamide] | – | IC50 [2]: 1 to 11 µM
CCN(CC)C(=O)Cn1nc(C(F)(F)F)cc1Nc1ncc(C(=O)Nc2c(C)ccc(O)c2C)s1 [BAA-561, 2-((1-(2-(diethylamino)-2-oxoethyl)-3-(trifluoromethyl)-1H-pyrazol-5-yl)amino)-N-(3-hydroxy-2,6-dimethylphenyl)thiazole-5-carboxamide] | – | IC50 [2]: 1 to 11 µM
Cc1ccc(O)cc1NC(=O)c1cnc(N)s1 [REF-001, 2-Amino-N-(5-hydroxy-2-methyl-phenyl)thiazole-5-carboxamide, reference compound] | – | IC50 [3]: 53.2 µM
Cc1c(O)cccc1NC(=O)c1cnc(N)s1 [REF-002, 2-Amino-N-(3-hydroxy-2-methyl-phenyl)thiazole-5-carboxamide, reference compound] | – | IC50 [3]: 26.8 µM
Cc1cccc(C)c1NC(=O)c1cnc(Nc2ccn(C)n2)s1 [REF-003, N-(2,6-Dimethylphenyl)-2-[(1-methylpyrazol-3-yl)amino]thiazole-5-carboxamide, reference compound] | – | IC50 [4]: 54.3 µM
COc1ccc(C)c(NC(=O)c2cnc(Nc3ccn(C)n3)s2)c1C [REF-004, N-(3-Methoxy-2,6-dimethyl-phenyl)-2-[(1-methylpyrazol-3-yl)amino]thiazole-5-carboxamide, reference compound] | – | IC50 [4]: > 100 µM

The next lines start with results.

IC50 [1] [µM] | SMILES | further results
1 to 11 | Cc1ccc(O)c(C)c1NC(=O)c1cnc(Nc2ccn(CCNC(=O)OC(C)(C)C)n2)s1 [BAA-020, tert-butyl N-[2-[3-[5-[(3-hydroxy-2,6-dimethyl-phenyl)carbamoyl]thiazol-2-yl]amino]pyrazol-1-ylethyl]carbamate] | –
1 to 11 | Cc1ccc(O)c(C)c1NC(=O)c1cnc(Nc2cn[nH]c2)s1 [BAA-026, N-(3-hydroxy-2,6-dimethyl-phenyl)-2-(1H-pyrazol-4-ylamino)thiazole-5-carboxamide] | –
1 to 11 | Cc1ccc(O)c(C)c1NC(=O)c1cnc(Nc2ccn([C@H]3CCCN(C(=O)OC(C)(C)C)C3)n2)s1 [BAA-039] | –
0.05 to 1 | Cc1ccc(O)c(C)c1NC(=O)c1cnc(Nc2ccn([C@H]3CCOC3)n2)s1 [BAA-041] | –
0.05 to 1 | CCOC(=O)c1coc(Nc2ncc(C(=O)Nc3c(C)ccc(O)c3C)s2)n1 [BAA-045] | –
1 to 11 | Cc1ccc(O)c(C)c1NC(=O)c1cnc(N[C@H]2CCN(C(=O)OC(C)(C)C)C2)s1 [BAA-049, tert-butyl (3S)-3-[5-[(3-hydroxy-2,6-dimethyl-phenyl)carbamoyl]thiazol-2-ylamino]pyrrolidine-1-carboxylate] | –
1 to 11 | Cc1ccc(O)c(C)c1NC(=O)c1cnc(N[C@@H]2CCN(C(=O)OC(C)(C)C)C2)s1 [BAA-050] | –
1 to 11 | Cc1ccc(O)c(C)c1NC(=O)c1cnc(Nc2cc(CN3CCN(CCO)CC3)n(C)n2)s1 [BAA-052, N-(3-Hydroxy-2.6-dimethyl-phenyl)-2-[[5-[[4-(2-hydroxyethyl)piperazin-4-ium-1-yl]methyl]-1-methyl-pyrazol-3-yl]amino]thiazole-5-carboxamide] | –
1 to 11 | Cc1ccc(O)c(C)c1NC(=O)c1cnc(NC2CCCCC2)s1 [BAA-064, 2-(cyclohexylamino)-N-(3-hydroxy-2,6-dimethyl-phenyl)thiazole-5-carboxamide] | –
1 to 11 | Cc1ccc(O)c(C)c1NC(=O)c1cnc(NCCCO)s1 [BAA-069, N-(3-hydroxy-2,6-dimethyl-phenyl)-2-(3-hydroxypropylamino)thiazole-5-carboxamide] | –
1 to 11 | Cc1ccc(O)c(C)c1NC(=O)c1cnc(NCC(N)=O)s1 [BAA-070, 2-[(2-amino-2-oxo-ethyl)amino]-N-(3-hydroxy-2,6-dimethyl-phenyl)thiazole-5-carboxamide] | –
1 to 11 | Cc1ccc(O)c(C)c1NC(=O)c1cnc(NCCC(C)(C)C)s1 [BAA-074, 2-(3,3-dimethylbutylamino)-N-(3-hydroxy-2,6-dimethyl-phenyl)thiazole-5-carboxamide] | –
1 to 11 | Cc1ccc(O)c(C)c1NC(=O)c1cnc(NCCc2ccc(C(F)(F)F)cc2)s1 [BAA-075, N-(3-hydroxy-2,6-dimethyl-phenyl)-2-[2-[4-(trifluoromethyl)phenyl]ethylamino]thiazole-5-carboxamide] | –
0.05 to 1 | Cc1ccc(O)c(C)c1NC(=O)c1cnc(Nc2ccn(CC(=O)NC[C@H](C)O)n2)s1 [BAA-174] | –
1 to 11 | Cc1ccc(O)c(C)c1NC(=O)c1cnc(NCC2CCN(C(=O)CN3CCCC3)CC2)s1 [BAA-211, N-(3-Hydroxy-2.6-dimethyl-phenyl)-2-[[1-(2-pyrrolidin-1-ylacetyl)-4-piperidyl]methylamino]thiazole-5-carboxamide] | –
0.05 to 1 | Cc1ccc(O)c(C)c1NC(=O)c1cnc(NCC2CCN(C(=O)CN3CCOCC3)CC2)s1 [BAA-217, N-(3-hydroxy-2,6-dimethyl-phenyl)-2-[[1-(2-morpholinoacetyl)-4-piperidyl]methylamino]thiazole-5-carboxamide] | –
